Source: patent US4567162A, “Biologically active heptapeptides” (Farmitalia Carlo Erba, priority 1983, dated 1986)
Counter-ions that a name gives are not always drawn. Ends that are not written are not given here. Peptide text beside a SMILES is read from it.

Legend:
[1] = test system: protein synthesis of liver tissue; assay: In vivo-in vitro test: protein synthesis rate of liver tissue (14C amino acid incorporation in microsomal cell juice); parameters: species or system male rats (Wistar); settings: 4 weeks; for Δ % control rat group treated: versus treated (physiological sodium chloride s.c.) control group; for Δ % control rat group untreated: versus untreated control group; for Protein synthesis rates compared with the two control groups: male rats, daily s.c.
Protocol: De-protecting reactions are carried out according to methods known per se in polypeptide chemistry. Peptides wherein Y represents OR are prepared, for example, starting from the C-terminal amino acid esterified by the appropriate alcohol. Peptides wherein Y represents OH can be prepared, for example, by hydrolysis of peptides wherein Y represents OR. Peptides wherein Y represents NH2, NHR or NR2 can be prepared by ammonolysis of the corresponding esters or starting from a C-terminal amino acid amidated by an appropriate amine. Hydrazido or substituted hydrazido derivatives according to the invention are prepared by condensation of the N-protected peptide or amino acid with a suitably substituted hydrazine, such as benzylcarbazate, t-butylcarbazate, adamantylcarbazate, phenylhydrazine or adamantylhydrazine, or reacting the N-protected peptide or amino acid hydrazide with a suitable alkylating agent, such as an alkyl chloride, or with a suitable acylating agent such as benzylchloroformate, t-butylchloroformate, di-t-butyldicarbonate or adamantylfluoroformate. […] The compounds according to the invention show an interesting growth promoting activity in animals determined both by the in vivo-in vitro test system on protein synthesis of liver tissue (as described by K. Kammerer and A. Dey-Hazra (1980) Vet. Med. Nachr. Nr. 2, 99-112), and by the dose-dependent increase in weight gain and feed efficiency after subcutaneous or oral administration.
The growth tests were carried out for periods of 4 weeks, using groups of 6 male rats (Wistar, Hagemann, Extertal) divided in subgroups of three animals managed in Markolon cages, good shaving as litter.
Water and feed (Altromin 1321 Standard diet containing 19% crude protein): ad libitum.
The peptides of the present invention were administered in solution s.c. daily at doses of 10, 50 and 100 ng/kg, using as diluent normal saline (starting from a stock solution with 100 ng/ml).
Homogenise 3 g liver in 9 ml TKM buffer-saccharose solution, cooled on ice, in a Potter homogeniser at 600 r.p.m. for 2 min.; centrifuge at 4° C. in an ultracentrifuge with 10,000 g for 20 min., decant the supernatant=microsomal cell juice.
After calculation of protein content in the microsomal cell juice by means of the biuret method, the protein concentration was adjusted with TKM buffer to 1 mg/ml. To that, a further dilution with bidistilled water to 0.25 mg protein per ml of the microsomal cell juice followed.
Subsequently portions of 0.15 l ml reaction medium and 0.05 ml (50 mcg) of pyruvate kinase solution, as well as 0.1 ml of ^14 C amino acid mixture (=1 μCi) were added. The volume of the incubation mixture was then 1 ml each.
After a 35 minute incubation at 37° C. in a water bath, protein precipitation was performed by adding 2 ml of trichloracetic acid (10%). The sediment was washed by several additions of trichloroacetic acid and subsequent centrifugation (3600 g/5 min) until the supernatant was free from radioactivity.
The residue was dissolved in 1.0 ml Lumasolve and left overnight at 37° C., until it was clear.
Measuring the preparation was done in a PRIAS liquid scintillation counter PL (1.0 ml+5 ml scintillation liquid).
A detailed method is described in the above cited Kammerer article.

[2] = Growth test in pigs (body weight, feed consumption, feed efficiency); assay type: in vivo, castrated male pigs (Hybrids)
Protocol: The growth test was carried out for a period of 3 weeks, using groups of 7 castrated male pigs (Hybrids) divided in subgroups and managed in cages with flat decks. The pigs were fed during the whole experimental period with grower feed (Hoveler, normal type without feed additives), 1 kg per day. Water was given ad libitum. The weights were weekly recorded.

[3] = 50 ng/kg daily injection, 3 weeks
[4] = 50 ng/kg, 3 weeks, versus untreated group 1

Row | Compound | Δ % control rat group treated ([1]; 10 ng/kg daily s.c.) | Δ % control rat group untreated ([1]; 10 ng/kg daily s.c.) | Δ % control rat group treated ([1]; 50 ng/kg daily s.c.) | Δ % control rat group untreated ([1]; 50 ng/kg daily s.c.) | Δ % control rat group treated ([1]; 100 ng/kg daily s.c.) | Δ % control rat group untreated ([1]; 100 ng/kg daily s.c.) | Protein synthesis rates compared with the two control groups [1] | Weight after 1 week ([2]; 50 ng/kg daily injection) [kg] | Weight after 2 weeks ([2]; 50 ng/kg daily injection) [kg] | Weight after 3 weeks ([2]; 50 ng/kg daily injection) [kg] | Weight gain [2, 3] [kg] | Weight gain in % [2, 3] [%] | Initial weight ([2]; 50 ng/kg daily injection, baseline) [kg] | Feed efficiency (kg feed/kg weight gain) ([2]; 50 ng/kg, 3 weeks) | Consumption (feed) ([2]; 50 ng/kg, 3 weeks, feed 1 kg per day) [kg] | Feed efficiency Δ % to control group [2, 4] [%] | Weight gain Δ % to control group [2, 4] | Weight gain (in words) ([2]; daily injection)
1 | COC(=O)[C@H](CCSC)NC(=O)[C@H](Cc1c[nH]c2ccccc12)NC(=O)CNC(=O)[C@H](CC(C)C)NC(=O)[C@@H]1CCCN1C(=O)[C@@H]1CCCN1C(=O)[C@@H](N)C(C)C [Ex. 2 (TK7D), HCl.H-Val-Pro-Pro-Leu-Gly-Trp-Met-OMe] (H-VPPLGWM-OMe) | +29.4% | +11.9% | +38.2% | +19.4% | +63.2% | +41.0% | significantly different from the two control groups | – | – | – | – | – | – | – | – | – | – | –
2 | VPPLGWM [Ex. 1 (TK7), H-Val-Pro-Pro-Leu-Gly-Trp-Met-OH.HCl] | +36.1% | +17.7% | +46.0% | +26.2% | +56.5% | +35.3% | significantly different from the two control groups | 15.2 | 17.8 | 20.7 | 9.0 | 76.9 | 11.7 | 2.33 | 21 | -24.6 | +32.4% | clear increase in weight gain
